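Abbreviation: GI50, concentration required for 50% inhibition of growth. The concentration for full growth arrest is given as TGI.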
Experiments:
Assay in all cases: NCI anticancer screen, dose series, 384-well format
[1] = test system: MDA-MB-435 melanoma
[2] = test system: OVCAR-3 ovarian
[3] = test system: HCT-15 colon
[4] = test system: HOP-92 NSCLC
[5] = test system: K-562 leukemia
[6] = test system: HCC-2998 colon
[7] = test system: NCI-H460 NSCLC
[8] = test system: RXF 393 renal
[9] = test system: HL-60(TB) leukemia
[10] = test system: SK-MEL-5 melanoma
[11] = test system: SK-MEL-2 melanoma
[12] = test system: CAKI-1 renal
[13] = test system: UACC-62 melanoma

Question: How did the GI50 [1] turn out when CC[C@H](NC(=O)[C@H](CS(=O)(=O)CC1CC1)N[C@@H](c1ccc(F)cc1)C(F)(F)F)C(=O)C(=O)NC1CC1 was run?
Answer: > 100 µM

Question: What about the TGI [1] of the same compound?
Answer: > 100 µM

Question: And the GI50 [2]?
Answer: > 100 µM

Question: And the TGI [2]?
Answer: > 100 µM

Question: And the GI50 [3]?
Answer: > 100 µM

Question: What about the TGI [3] of the same compound?
Answer: > 100 µM

Question: What about the GI50 [4] of the same compound?
Answer: > 100 µM

Question: And the TGI [4]?
Answer: > 100 µM

Question: What about the GI50 [5] of the same compound?
Answer: > 93.1 µM

Question: And the TGI [5]?
Answer: > 100 µM

Question: And the GI50 [6]?
Answer: > 100 µM

Question: And the TGI [6]?
Answer: > 100 µM

Question: And the GI50 [7]?
Answer: > 100 µM

Question: And the TGI [7]?
Answer: > 100 µM

Question: And the GI50 [8]?
Answer: > 88.2 µM

Question: And the TGI [8]?
Answer: > 100 µM

Question: And the GI50 [9]?
Answer: 84.2 µM

Question: What about the TGI [9] of the same compound?
Answer: > 100 µM

Question: What about the GI50 [10] of the same compound?
Answer: > 100 µM

Question: What about the TGI [10] of the same compound?
Answer: > 100 µM

Question: And the GI50 [11]?
Answer: > 100 µM

Question: What about the TGI [11] of the same compound?
Answer: > 100 µM

Question: And the GI50 [12]?
Answer: > 100 µM

Question: What about the TGI [12] of the same compound?
Answer: > 100 µM

Question: What about the GI50 [13] of the same compound?
Answer: > 100 µM

Question: What about the TGI [13] of the same compound?
Answer: > 100 µM
